PMC11170107, “Development of a new hazard scoring system in primary neuronal cell cultures for drug-induced acute neuronal toxicity identification in early drug discovery” (Frontiers in Pharmacology, 2024)
“Also recorded” adds a separate entry of the source. One block for each molecule: values may come before it.

What was measured:
[1] = Supplementary Table S1; cited from earlier work
[2] = WHO adverse drug reactions VigiBase; ref Kumlien and Lundberg, 2010; cited from earlier work
[3] = seizure ADR frequency in SIDER; ref Campillos et al., 2008; Kuhn et al., 2010; cited from earlier work
[4] = ref National library of medicine, Daylimed; cited from earlier work
[5] = test system: rat primary cortical neurons; assay: MEA hazard scoring in rat primary cortical neuronal cultures; details: for hazard classification in the hazard scoring system: rat primary neurons on MEA
Method: At DIV28, spontaneous neuronal activity obtained for 30 min in culture solution was defined as the baseline.
Data analysis was captured using AxIs suite software (Axion Biosystems Inc., version 3.6.2) and further analyzed using GraphPad Prism (version 9.00; GraphPad Software Inc., San Diego, CA). […] An active well should have more than 40% active electrodes. All wells below this threshold were discarded upon these quality criteria. For the downstream statistical analysis, the data on each MEA parameter was first expressed as the ratio of exposed wells (percentage change between baseline and the treatment) and then normalized to the average of the control within the same plate. i.e., Baseline corrected ratios of n= 7 or eight wells were averaged per condition. Each well of the MEA served as its own control, and the changes in the electrical activity elicited by the treatments were expressed as a percentage of that control activity and normalized to the wells treated with the vehicle control dimethyl sulfoxide (DMSO). […] Differences were determined using the non-parametric Wilcoxon Mann Whitney test; p-values below 0.05 were considered significant. Data are expressed as means ± S.E.M.
Thereafter, based on the effects of vehicles and positive controls, we determined the cut-off points between the different effect zones according to the key parameters selected as described in the previous subsection. The zones were defined as follows. The “no effect” zone reflects parameter changes that are most likely within vehicle variability. The “mild” and “strong” zones are differentiated bidirectionally showing mild and strong effects.
The respective hazard class was determined by a cumulative scoring of individual parameters using a scoring matrix, which was based on the following three fundamental components: (1) selection of the six key relevant parameters, (2) defining the cutoffs for the level of effect, and (3) defining weighted points per parameter for the level of hazard potential. The scoring matrix concluded with the addition of a weighted point algorithm to discriminate distinct degrees of neuronal hazard. […] The weighted points were defined on the importance of a parameter (and the direction of effect), as well as the identification of an expected hazard for different pharmacological modes of action. The overall hazard score is derived from the sum of all weighted parameters, which could be converted into a specific hazard label. The weighted points and total score range associated with the various hazard labels were optimized using an iterative process.

[6] = established from VigiBase, SIDER, Elsevier drug information and FDA prescribing information
[7] = statistical tolerance interval of the ΔΔ% effect, One-sided interval

Molecule: CN(C)CCC=C1c2ccccc2CCc2ccccc21 [Amitriptyline]
- Free Cmax highest [1]: 173 nM
- Percentage seizures of total number of ADRs [2]: 1.447%
- SIDER ADR on-/off-label [3]: no frequency information
- FDA prescription information at therapeutic dose (Convulsion/ Seizure/Lower the seizure threshold/withdrawal) [4]: not found on label
- Area.Under.Cross.Correlation Lower.TI [5, 7]: -100
- Area.Under.Cross.Correlation Upper.TI [5, 7]: -28.75
- Burst.Duration...Avg.(s. Lower.TI) [5, 7]: -100
- Burst.Duration...Avg.(s. Upper.TI) [5, 7]: 2740
- Mean.Firing.Rate..Hz. Lower.TI [5, 7]: -100
- Mean.Firing.Rate..Hz. Upper.TI [5, 7]: -25.19
- Median.Mean.ISI Lower.TI [5, 7]: -60.49
- Median.Mean.ISI Upper.TI [5, 7]: 9.96

Molecule: COC(=O)C1=C(C)NC(C)=C([N+](=O)[O-])C1c1ccccc1C(F)(F)F (centres unmarked) [BayK 8644]
- Classification* (degree of seizure risk) [6]: No risk

- hazard classification in the hazard scoring system [5]: high hazard
Molecule: Cc1ccc(-c2cc(C(F)(F)F)nn2-c2ccc(S(N)(=O)=O)cc2)cc1 [Celecoxib]
- Free Cmax highest [1]: 410 nM
- Percentage seizures of total number of ADRs [2]: 0.3553%
- SIDER ADR on-/off-label [3]: not found on label
- FDA prescription information at therapeutic dose (Convulsion/ Seizure/Lower the seizure threshold/withdrawal) [4]: not found on label

Molecule: NS(=O)(=O)c1cc2c(cc1Cl)NC(C1CC3C=CC1C3)NS2(=O)=O (centres unmarked) [Cyclothiazide]
- Classification* (degree of seizure risk) [6]: Risk
- Free Cmax highest [1]: 3000 nM
- Percentage seizures of total number of ADRs [2]: 0%

Molecule: N[C@@]1(C(=O)O)CC[C@H]2[C@H](C(=O)O)[C@H]21 [Eglumetad (LY354740), Eglumetad]
- Classification* (degree of seizure risk) [6]: Risk

Molecule: CCN1C(=O)OC(C)(C)C1=O [Ethadione]
- Classification* (degree of seizure risk) [6]: Risk

Molecule: COc1ccc(COc2ccc(Cc3cnc(N)nc3N)cc2OC)cc1 [GW-2580]
- Classification* (degree of seizure risk) [6]: Risk

Molecule: NN [Hydrazine]
- Classification* (degree of seizure risk) [6]: Risk

Molecule: NC(CCP(=O)(O)O)C(=O)O [L-AP 4]
- Classification* (degree of seizure risk) [6]: Risk

- hazard classification in the hazard scoring system [5]: high hazard
Molecule: C[C@](N)(Cc1ccc(O)c(O)c1)C(=O)O [Methyldopa]
- Free Cmax highest [1]: 3300 nM
- Percentage seizures of total number of ADRs [2]: 0.1002%
- SIDER ADR on-/off-label [3]: not found on label
- FDA prescription information at therapeutic dose (Convulsion/ Seizure/Lower the seizure threshold/withdrawal) [4]: not found on label

Molecule: Cc1cc2c(s1)Nc1ccccc1N=C2N1CCN(C)CC1 [Olanzapine]
- Classification* (degree of seizure risk) [6]: No risk

Molecule: C1CCc2nnnn2CC1 [Pentylenetetrazole]
- Classification* (degree of seizure risk) [6]: Risk

Molecule: FC(F)(F)c1ccc(CNc2ccc(Cc3c[nH]c4ncc(Cl)cc34)cn2)cn1 [Pexidartinib]
- Classification* (degree of seizure risk) [6]: Risk
- Free Cmax highest [1]: 100 nM
- Percentage seizures of total number of ADRs [2]: 0.5386%
- FDA prescription information at therapeutic dose (Convulsion/ Seizure/Lower the seizure threshold/withdrawal) [4]: not found on label

- hazard classification in the hazard scoring system [5]: hazards; also recorded: high hazard
Molecule: O=C1NC(=O)C(c2ccccc2)(c2ccccc2)N1 [Phenytoin]
- Free Cmax highest [1]: 8127 nM
- Percentage seizures of total number of ADRs [2]: 8.075%
- SIDER ADR on-/off-label [3]: infrequent (0.1-1%)
- FDA prescription information at therapeutic dose (Convulsion/ Seizure/Lower the seizure threshold/withdrawal) [4]: On label

Molecule: [Br-].[K+] [Potassium bromide]
- Classification* (degree of seizure risk) [6]: No risk
- Percentage seizures of total number of ADRs [2]: 4.831%
- FDA prescription information at therapeutic dose (Convulsion/ Seizure/Lower the seizure threshold/withdrawal) [4]: not found on label

Molecule: Cc1ccc(COC(=O)N2CC[C@H](CNc3ncccn3)[C@H](F)C2)cc1 [Rislenemdaz (CERC-301), Rislenemdaz]
- Classification* (degree of seizure risk) [6]: Risk
- Free Cmax highest [1]: 4 nM

Molecule: CNC(=O)c1cc(Oc2ccc3nc(N[C@@H]4CCCC[C@H]4O)sc3c2)ccn1 [Sotuletinib]
- Classification* (degree of seizure risk) [6]: Risk

Molecule: O=C1C[C@@H]2OCC=C3CN4CC[C@]56c7ccccc7N1[C@H]5[C@H]2[C@H]3C[C@H]46 [Strychnine]
- Classification* (degree of seizure risk) [6]: Risk
- Percentage seizures of total number of ADRs [2]: 0%

Molecule: O=C1c2ccccc2C(Cc2ccncc2)(Cc2ccncc2)c2ccccc21 [XE-991]
- Classification* (degree of seizure risk) [6]: Risk

Molecule: CCCCCCOc1nsnc1C1=CCCN(C)C1 [Xanomeline]
- Classification* (degree of seizure risk) [6]: Risk

Molecule: Tertiapin
- Classification* (degree of seizure risk) [6]: Low risk
